Five compounds from patent publication US9944654B2, “Nargenicin compounds and uses thereof as antibacterial agents” (priority 2014, dated 2018) can be followed below.

Like-named read-outs stand apart in the source and are kept apart here. Some results are limits rather than exact numbers.

The target of assay [1] is T1, S. aureus DnaE (DNA polymerase III α-subunit homolog from Staphylococcus aureus) (Staphylococcus aureus, UniProt Q5HF71).
T1 construct: SaDnaE (S. aureus DnaE residues 1-1065); 6xHis (N); made in house; host or cells: E. coli BL21-AI
T1 sequence (Q5HF71 1-1065): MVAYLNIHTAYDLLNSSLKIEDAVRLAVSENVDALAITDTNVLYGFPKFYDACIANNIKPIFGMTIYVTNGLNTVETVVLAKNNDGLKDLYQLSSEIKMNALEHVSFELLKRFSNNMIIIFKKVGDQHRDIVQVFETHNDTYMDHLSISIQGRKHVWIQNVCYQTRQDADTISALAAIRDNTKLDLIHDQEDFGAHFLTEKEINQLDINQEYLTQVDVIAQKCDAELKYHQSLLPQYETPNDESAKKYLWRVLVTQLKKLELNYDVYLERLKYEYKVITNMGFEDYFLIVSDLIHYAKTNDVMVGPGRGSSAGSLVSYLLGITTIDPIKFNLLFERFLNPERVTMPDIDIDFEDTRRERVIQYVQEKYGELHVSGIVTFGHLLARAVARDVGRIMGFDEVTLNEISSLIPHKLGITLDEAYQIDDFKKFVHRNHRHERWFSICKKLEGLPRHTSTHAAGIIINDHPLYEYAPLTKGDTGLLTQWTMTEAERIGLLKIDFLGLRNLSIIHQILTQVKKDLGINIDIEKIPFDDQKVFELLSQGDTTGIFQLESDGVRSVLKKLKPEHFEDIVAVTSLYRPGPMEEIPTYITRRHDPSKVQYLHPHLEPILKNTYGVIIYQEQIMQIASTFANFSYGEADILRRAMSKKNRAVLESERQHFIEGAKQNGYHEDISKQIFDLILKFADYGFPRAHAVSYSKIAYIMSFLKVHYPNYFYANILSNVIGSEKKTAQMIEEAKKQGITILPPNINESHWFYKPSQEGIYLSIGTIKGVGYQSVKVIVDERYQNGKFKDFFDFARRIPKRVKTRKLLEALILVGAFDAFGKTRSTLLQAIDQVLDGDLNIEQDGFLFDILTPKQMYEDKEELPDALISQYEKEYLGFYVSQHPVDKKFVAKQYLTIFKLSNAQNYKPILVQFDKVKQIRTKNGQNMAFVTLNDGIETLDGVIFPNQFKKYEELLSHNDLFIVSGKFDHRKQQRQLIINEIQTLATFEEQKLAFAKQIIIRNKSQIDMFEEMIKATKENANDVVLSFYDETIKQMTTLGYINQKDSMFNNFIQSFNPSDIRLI
Put plainly: biochemical. The assay is classed as biochemical. In outline: (§1)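 3H-dTTP (0.011 mM) incorporation into DNase I-activated calf thymus DNA, alongside the other three dNTPs at 0.025 mM, measured by filter counting after TCA precipitation. Reactions ran 30 min at 30° C., started with purified N-His DnaE: 0.8 μg/ml for E. coli, 0.05 μg/ml for S. aureus.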

The target of assay [2] is T2, E. coli DnaE (DNA polymerase III α-subunit from Escherichia coli) (Escherichia coli, UniProt P10443).
T2 construct: EcDnaE (E. coli DnaE residues 1-1160); 6xHis (N); made in house; host or cells: E. coli BL21(DE3)
T2 sequence (P10443 whole entry, the tested form may be a part): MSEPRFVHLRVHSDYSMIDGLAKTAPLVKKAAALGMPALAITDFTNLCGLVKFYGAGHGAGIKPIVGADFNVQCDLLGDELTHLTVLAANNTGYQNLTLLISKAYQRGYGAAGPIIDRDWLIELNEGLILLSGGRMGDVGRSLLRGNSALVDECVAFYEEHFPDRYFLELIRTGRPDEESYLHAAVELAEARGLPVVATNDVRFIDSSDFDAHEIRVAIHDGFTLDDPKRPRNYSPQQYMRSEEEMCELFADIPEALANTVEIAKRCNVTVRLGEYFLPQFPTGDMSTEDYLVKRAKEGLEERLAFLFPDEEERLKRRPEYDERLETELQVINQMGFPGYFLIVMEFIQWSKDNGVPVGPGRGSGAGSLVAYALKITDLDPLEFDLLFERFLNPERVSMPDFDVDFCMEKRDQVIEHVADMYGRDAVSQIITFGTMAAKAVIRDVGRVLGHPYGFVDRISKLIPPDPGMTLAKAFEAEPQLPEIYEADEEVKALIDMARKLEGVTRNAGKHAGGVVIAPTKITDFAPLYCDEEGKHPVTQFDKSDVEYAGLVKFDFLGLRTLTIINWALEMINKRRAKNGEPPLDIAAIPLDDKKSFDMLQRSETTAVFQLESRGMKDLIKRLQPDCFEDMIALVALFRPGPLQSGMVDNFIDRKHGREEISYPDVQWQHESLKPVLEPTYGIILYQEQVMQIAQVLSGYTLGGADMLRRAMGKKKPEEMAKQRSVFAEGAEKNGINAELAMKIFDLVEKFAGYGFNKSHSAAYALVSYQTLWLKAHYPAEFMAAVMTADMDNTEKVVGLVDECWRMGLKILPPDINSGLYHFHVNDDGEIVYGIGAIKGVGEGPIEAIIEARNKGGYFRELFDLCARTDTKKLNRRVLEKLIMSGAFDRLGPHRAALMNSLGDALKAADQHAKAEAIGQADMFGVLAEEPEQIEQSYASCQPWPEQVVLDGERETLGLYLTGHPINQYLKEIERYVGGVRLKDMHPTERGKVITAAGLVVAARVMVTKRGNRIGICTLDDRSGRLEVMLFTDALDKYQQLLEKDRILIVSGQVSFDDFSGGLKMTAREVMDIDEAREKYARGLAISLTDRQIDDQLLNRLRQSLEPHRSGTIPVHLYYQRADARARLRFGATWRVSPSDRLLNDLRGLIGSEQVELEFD
Put plainly: In vitro DnaE single enzyme assay (E. coli). The class given is biochemical. To be noted: for IC50: read-out: E. coli DnaE IC50 (converted). In outline:
as §1

The test system of assay [3] is Streptococcus pneumoniae MB6357 (CL 2883). The assay is described as follows: Nargenicin antibacterial assay (MIC), S. pneumoniae. The assay is classed as cell-based. To be noted: * = some reduction of growth versus control at […]; for S. pneumoniae MB2883 (MIC): Isosensitest broth; for MIC: Streptococcus pneumoniae, read-out: S. pneumoniae MB2883 (MIC), Isosensitest broth.

Assay [4] has as its system Drug susceptible M. tuberculosis clinical isolates. The class given is cell-based, Mycobacterium tuberculosis.
Assay [5] relates to Pseudomonas aeruginosa MB5890 (CB1101, efflux-deleted). Put plainly: microbe, parasite or virus in culture. The class given is cell-based. To be noted: * = some reduction of growth versus control at […]; for P. aeruginosa MB5890 efflux-del (MIC): MHII broth; for MIC: Pseudomonas aeruginosa, read-out: P. aeruginosa MB5890 efflux-del (MIC), MHII broth.
Assay [6] deals with Escherichia coli MB5747 (LS 883, tolC). Put plainly: microbe, parasite or virus in culture. The assay is classed as cell-based. To be noted: * = some reduction of growth versus control at […]; for E. coli LS883 tolC (MIC): MHII broth; for MIC: Escherichia coli, read-out: E. coli LS883 tolC (MIC), MHII broth.
Assay [7] concerns Staphylococcus aureus MB6266 (MRSA COL). Put plainly: Nargenicin antibacterial assay (MIC), S. aureus. The class given is cell-based. As to conditions: * = some reduction of growth versus control at […]; for S. aureus COL (MIC): MHII broth + 50% human serum; for MIC: Staphylococcus aureus, MRSA, read-out: S. aureus COL (MIC), MHII broth + 50% human serum.

In the case of `CO[C@H]1C[C@H]2C=CC3C4[C@H](O)[C@@H](C)[C@@H](OC(=O)c5ccc[nH]5)[C@@H]3O[C@]42/C(C)=C/[C@@H](C)[C@@H]([C@@H](C)OC(=O)C(=O)N2CCOCC2)OC1=O` [Example 118], the “S. aureus DnaE IC50” value in assay [1] was 0.004 µg/mL. For the same compound, in assay [2], the “E. coli DnaE IC50” value is more than 100 µg/mL. In addition, in assay [3], the “S. pneumoniae MB2883 (MIC)” value was 128 µg/mL. Moreover, the “MICs compared with nargenicin” value in assay [4] is on record as “equal to or better than nargenicin”. Besides, the “P. aeruginosa MB5890 efflux-del (MIC)” value in assay [5] was determined as 32 µg/mL. Further, the “E. coli LS883 tolC (MIC)” value in assay [6] was 1 µg/mL. The “S. aureus COL (MIC)” value in assay [7] came out at 0.5 µg/mL.
For `CO[C@H]1CC2C=C[C@H]3[C@H]4O[C@]2(/C(C)=C/[C@@H](C)[C@@H](C(C)O)OC1=O)[C@@H]3[C@H](O)[C@@H](C)[C@H]4OC(=O)c1cccn1C(=O)C(C)C` (some centres unmarked) [Example 204], the “MICs compared with nargenicin” value in assay [4] (M. tuberculosis clinical isolates (MTB panel)) is given as “equal to or better than nargenicin”.
For `CO[C@H]1C[C@H]2C=CC3C4[C@H](O)[C@@H](C)[C@@H](OC(=O)c5ccc[nH]5)[C@@H]3O[C@]42/C(C)=C/[C@@H](C)[C@@H]([C@@H](C)OC(=O)C(=O)OCCN2CCCC2)OC1=O.O=C(O)C(F)(F)F` [Example 212], the IC50 in assay [1] (S. aureus DnaE IC50) is less than 7.51 nM; in assay [2], 3760 nM. Further, the MIC in assay [3] was more than 128 µg/mL; in assay [5] it was 128 µg/mL; in assay [6], 4 µg/mL; in assay [7] it was 4 µg/mL.
Consider `CO[C@H]1C[C@H]2C=CC3C4[C@H](O)[C@@H](C)[C@@H](OC(=O)c5ccc[nH]5)[C@@H]3O[C@]42/C(C)=C/[C@@H](C)[C@@H]([C@@H](C)OC(=O)C(=O)OCCN2CCCCC2)OC1=O.O=C(O)C(F)(F)F` [Example 213], for which the IC50 in assay [1] (S. aureus DnaE IC50) was less than 7.38 nM; in assay [2], 4430 nM. Also, the MIC is more than 128 µg/mL in assay [3], 128 µg/mL in assay [5], 4 µg/mL in assay [6] and 4 µg/mL in assay [7].
With `CO[C@H]1CC2C=C[C@H]3[C@H]4O[C@]2(/C(C)=C/[C@@H](C)[C@@H](C(C)O)OC1=O)[C@@H]3[C@H](O)[C@@H](C)[C@H]4OC(=O)c1ccc[nH]1` (some centres unmarked) [Nar, Nargenicin], the values for the IC50 in assay [1] (read-out: S. aureus DnaE IC50) and in assay [2] were 0.388 to 11.6 nM and 776 to 5040 nM, respectively. Further, the “S. pneumoniae MB2883 (MIC)” value in assay [3] is more than 64 µg/mL. Also, the “P. aeruginosa MB5890 efflux-del (MIC)” value in assay [5] came out at 8 µg/mL. Moreover, the “E. coli LS883 tolC (MIC)” value in assay [6] is 0.25 to 0.5 µg/mL. The “S. aureus COL (MIC)” value in assay [7] lay in the range of 0.25 to 0.5 µg/mL.

As a reminder, the IC50 is the concentration that gives 50% inhibition.
